9 molecules from ChEMBL document CHEMBL5390285, “Isolation and In Vitro and In Vivo Activity of Secondary Metabolites from Clerodendrum polycephalum Baker against Plasmodium Malaria Parasites” (J Nat Prod, 2023) can be followed below.

One data set concerns Plasmodium falciparum. In words: Antiplasmodial activity against synchronized ring stage Plasmodium falciparum 3D7 infected in human erythrocytes assessed as inhibition of parasite proliferation preincubated for 48 hrs followed by [3H]-hypoxanthine incorporation and measured after 24 hrs by microbeta liquid scintillation counter analysis. It counts as functional, organism-based.

The nature of data set [1]: Cytotoxicity against human NFF cells assessed as growth inhibition incubated for 72 hrs by SRB assay. It counts as toxicity, cell-based. (The SRB assay estimates cell density from bound dye.)
Data set [2] in a line: Selectivity index, ratio of IC50 for cytotoxicity against human NFF cells to the IC50 for antiplasmodial activity against Plasmodium falciparum 3D7 infected in human erythrocytes. The conditions noted are these: read-out: Ratio IC50. The class given is toxicity, cell-based.
In data set [3] the test system is Plasmodium berghei. The experiment in a line: In vivo antimalarial activity against Plasmodium berghei NK65 infected in Swiss albino mouse assessed as reduction in parasitemia in erythrocytes at 10 mg/kg, po administered once daily for 4 days and measured on day 5 post-infection by Giemsa staining based microscopic analysis relative to control. Also noted: scale not given: the % may be the effect or the level left. The class given is functional. Conditions: time 4 day.

In data set [4] the test system is Plasmodium berghei. The experiment in a line: In vivo antimalarial activity against Plasmodium berghei NK65 infected in Swiss albino mouse assessed as reduction in parasitemia in erythrocytes at 20 mg/kg, po administered once daily for 4 days and measured on day 5 post-infection by Giemsa staining based microscopic analysis relative to control. The class given is functional. Conditions: time 4 day. Set-up: scale not given: the % may be the effect or the level left.

In data set [5] the test system is Plasmodium berghei. In words: In vivo antimalarial activity against Plasmodium berghei NK65 infected in Swiss albino mouse assessed as chemosuppression of parasite in erythrocytes at 10 mg/kg, po administered once daily for 4 days and measured on day 5 post-infection by Giemsa staining based microscopic analysis relative to control. The class given is functional. The conditions noted are these: time 4 day.

In data set [6] the test system is Plasmodium berghei. The experiment in a line: In vivo antimalarial activity against Plasmodium berghei NK65 infected in Swiss albino mouse assessed as chemosuppression of parasite in erythrocytes at 20 mg/kg, po once daily for 4 days and measured on day 5 post-infection by Giemsa staining based microscopic analysis relative to control. The class given is functional. The conditions noted are these: time 4 day.

Consider `CC1(C)CCC[C@@]2(C)C1=C(O)C(=O)c1c2c(O)c2oc(CO)cc2c1O`, for which, in the data set with Plasmodium falciparum, the IC50 turned out to be 30 µM. For `CC(=O)OC[C@@]12[C@@H](OC(C)=O)C[C@@H](C)[C@](C)(CCC3CCOC3=O)[C@H]1CCC[C@@]2(O)CCl` (some centres not stated), in the data set with Plasmodium falciparum, the IC50 was > 50 µM. On the same count and under the same terms, to `CC(=O)OC[C@@]12[C@@H](OC(C)=O)C[C@@H](C)[C@](C)(CCC3CCOC3=O)[C@H]1CCC[C@@H]2C=O` (some centres not stated) belongs 27.8 µM. For `C=CC1=C(C)C2=NC/1=C\C1=NC(=C\C3=C(C)C4=C(O)[C@H](C(=O)OC)/C(=C5/N/C(=C\2)[C@@H](C)[C@@H]5CCC(=O)OC)C4=N3)/C(CC)=C1C`, the IC50 in the data set on Plasmodium falciparum worked out at 4.49 µM. Further, the IC50 at 72 h in data set [1] was > 50 µM. Besides, the selectivity ratio in data set [2] was > 11. Moreover, the Activity amounted to 2.52% with Plasmodium berghei [3], 1.5% in the data set on Plasmodium berghei [4], 79% in the data set with Plasmodium berghei [5] and 87% with Plasmodium berghei [6]. As for `CC1(C)CCC[C@]2(C)c3c(c(O)c4cc(CO)oc4c3O)C(=O)C[C@@H]12`, in the data set with Plasmodium falciparum, the IC50 was > 40 µM. Still for that read-out and setting: to `CC(=O)OC[C@@]12[C@@H](OC(C)=O)C[C@@H](C)[C@](C)(CCC3CCOC3=O)[C@H]1CCC[C@@]21CO1` (some centres not stated) belongs > 50 µM; to `COc1ccc(-c2cc(=O)c3c(O)cc(O)cc3o2)cc1` [ACACETIN], < 40 µM. As for `CCN(CC)CCCC(C)Nc1ccnc2cc(Cl)ccc12` (configuration not stated) [CHLOROQUINE], the half-inhibitory concentration (IC50) at 72 h in data set [1] was found to be 31.7 µM. Moreover, the Activity is 1.78% with Plasmodium berghei [3] and 85% in the data set with Plasmodium berghei [5]. As to `CC1(C)C[C@H](O)C[C@@]2(C)OC(=O)C=C12` [LOLIOLIDE], the IC50 with Plasmodium falciparum was > 50 µM.

Broadly, the IC50 is the midpoint of a concentration-inhibition curve.
